Tests used:
[1] = test system: AML12 cells (mouse hepatocyte cell lines); experiment: Cytotoxicity of curcumin derivatives (MTT) with TGF-β treatment; assay type: cell-based; details: 2 ng/ml TGF-β; at concentrations other than 0.1 μM (1, 3, 5 μM); FIG. 1
Method: Cell experiments were performed by using AML12, […], and LX-2 cells, a human hepatic stellate cell.
AML12 cells were cultured in a culture medium made by adding 5 ml of insulin (ITS), 40 ng/ml of dexamethasone, 1% penicillin streptomycin (anti-anti), and 10% fetal bovine serum (FBS) to F-12 media (Corning Incorporated, USA, Arizona), a mixture of a DMEM medium and Ham's F-12 at a ratio of 50:50, which is used for culturing hepatocytes or prostate epithelial cells.
In order to confirm cytotoxicity, the cells of Example 1-1 were treated with 2 ng/ml of TGF-β, and then with curcumin (CUR), curcumin 5-8 (CURS-8), curcumin 4-8 (CUR4-8), and curcumin 5-14 (CURS-14) at 0.1, 1, 3, and 5 μM, respectively, for the same period of time. Thereafter, cells cultured in an incubator of 5% CO2 at 37° C. were stained with a tetrazolium dye capable of staining surviving cells (MTT), and absorbance was measured by using a spectrophotometer.
By a method described in Example 1-2, the numbers of surviving cells when curcumin (CUR) and curcumin derivatives (CUR5-8, CUR4-8, and CUR5-14) each were co-administered with TGF-β at respective concentrations were measured.

[2] = test system: mouse hepatocyte cell lines (AML12); experiment: TGF-β-induced fibrosis, co-administration of curcumin derivative and EW-7197 (epithelial-mesenchymal conversion, BODIPY, α-SMA staining, Western blotting); assay type: cell-based; details: 2 ng/ml TGF-β, 24 hours, 1 μM Cur or Cur5-8, 10 μM EW-7197
Method: Fibrosis was induced in hepatocytes with TGF-β, a curcumin derivative and a TGF-β receptor inhibitor were co-administered, and then fibrosis and fat synthesis and degradation were checked.
Specifically, 2 ng/ml of TGF-β was administered to the cells of Example 1-1, the cells were divided into administration groups of vehicle (Veh), 1 μM curcumin (Cur), 1 μM curcumin 5-8 (Cur5-8), 0.5 μM EW-7197 (EW0.5), 10 μM EW-7197 (EW or EW10), 1 μM curcumin and 0.5 μM EW-7197 (EW0.5+Cur), 1 μM curcumin and 10 μM EW-7197 (EW+Cur or EW10+Cur), 1 μM curcumin 5-8 and 0.5 μM EW-7197 (EW0.5+Cur5-8), 1 μM curcumin 5-8 and 10 μM EW-7197 (EW+Cur5-8 or EW10+Cur5-8), respective samples were administered, and culturing was performed for 24 hours. The control group (Con) was not treated with either TGF-β or the sample. […] After washing with PBS 1×, stained cells were observed.
In addition, in order to check the degree of fibrosis of hepatocytes, the cells cultured for 24 hours were fixed with 4% paraformaldehyde and then stained by using α-SMA (Santa Cruz Biotechnology, Inc., Dallas, Texas, USA), an Alexafluor 488 (Cell Signaling Technology, Danvers, Massachusetts, USA) antibody, and DAPI (Abcam plc., Cambridge, MA, USA). The cells were mounted with a mounting solution (Fisher Scientific, Hampton, Rockingham, USA), the manufactured sample was photographed using a confocal microscope to obtain photographs of stained cells, and the degree of color development in the photographs of the stained cells was analyzed with the ImageJ program.
In addition, in order to confirm the degree of fibrosis of hepatocytes, the cells cultured for 24 hours were collected, and protein expressions of α-SMA, Collagen I (Coll), p-SMAD2, and p-SMAD3 were checked by Western blotting with fibrosis markers in the same method as described in <Example 1-3>.
In order to check a synergistic effect of inhibiting fibrosis caused by a TGF-β and inhibiting fat accumulation caused thereby in case of co-administration of a curcumin derivative (Cur5-8) and a TGF-β receptor inhibitor (EW-7197), epithelial-mesenchymal conversion of hepatocytes was confirmed through a cell experiment by the method described in Example 1-5, and BODIPY staining and α-SMA staining were performed. Also, protein expressions of α-SMA, Collagen I p-SMAD2, and p-SMAD3 were checked by Western blotting.

Compound: COc1cc(C#Cc2cncc(C#Cc3ccc(O)c(OC)c3)c2)ccc1O [Cur4-8, 4,4′-(3,5-Pyridinediyldi-2,1-ethynediyl)bis(2-methoxyphenol)]
- cytotoxicity (MTT) [1]: cytotoxicity was high

Compound: COc1cc(/C=C/C(=O)CC(=O)/C=C/c2ccc(O)c(OC)c2)ccc1O [Cur, curcumin]
- epithelial-mesenchymal conversion caused by TGF-β ([2]; FIG. 8): not inhibited
- liver fibrosis (α-SMA staining, fibrosis marker Western blotting) ([2]; FIGS. 8, 10, 11): liver fibrosis was induced

Source: US20230364069A1, “METHOD FOR TREATING NON-ALCOHOLIC STEATOHEPATITIS THROUGH CO-ADMINISTRATION OF CURCUMIN DERIVATIVE AND TGF-B RECEPTOR INHIBITOR” (UNIVERSITY INDUSTRY FOUNDATION, YONSEI UNIVERSITY WONJU …, priority 2021, published 2023)
